Source: patent publication US20260248879A1, “METHODS OF USING A GCG/GLP1 CO-AGONIST FOR THERAPY” (ELI LILLY AND COMPANY, priority 2022, published 2026)

Key:
patients with T2DM [1] = experiment: Phase 1 multiple-ascending dose study in T2DM (Example 1): body weight, waist circumference, body composition; format: in vivo, human
Text: This study is a Phase 1, single-site, patient- and investigator-blinded, placebo controlled, randomized, non-crossover, multiple-ascending dose study with titration in each cohort in patients with T2DM to investigate the safety, tolerability, PK, and PD of the GLP-1/glucagon co-agonist peptide of SEQ ID NO:1 (Compound 1) administered as multiple SC injections QW for 12 weeks in Cohort 1 and 16 weeks in Cohort 2.
The first dosing regimen (also referred to as Cohort 1) is 12 weeks in duration and requires dose increments of 1.5 mg starting from 1.5 mg: • 1.5 mg QW Compound 1 for 4 weeks; • 3.0 mg QW Compound 1 for 4 weeks; and • 4.5 mg QW Compound 1 for 4 weeks.
The second dosing regimen (also referred to as Cohort 2) is 16 weeks in duration and requires dose increments of 2 mg starting from 2 mg: • 2 mg QW Compound 1 for 3 weeks; • 4 mg QW Compound 1 for 3 weeks; • 6 mg QW Compound 1 for 3 weeks; • 8 mg QW Compound 1 for 3 weeks; and • 10 mg QW Compound 1 for 4 weeks.
In respect of each dosing regimen, Compound 1 is administered SC into the abdomen of the patient after an overnight fast for at least 8 hours.
In respect of Cohort 1, body weight is measured at baseline and Days 1, 8, 15, 22, 29, 36, 43, 50, 57, 64, 71 and 78.
Wherever possible, the same scale is used for all weight measurements throughout the study and the scale is not moved or recalibrated. Subjects are weighed in light clothing at approximately the same time in the morning before dosing (on Day 1 only) and after an overnight fast and evacuation of bowel and the bladder, if possible. During the treatment period, weight is measured twice on each scheduled occasion, with the subject stepping off the scale between measurements. The average of the two weight measurements is recorded in the source document.
In respect of Cohort 1, waist circumference is measured at baseline and Days 1, 8, 15, 22, 29, 36, 43, 50, 57, 64, 71 and 78.
Waist circumference is measured at the midpoint between the lower margin of the least palpable rib and the top of the iliac crest. The patient stands with feet close together, arms at the side and body weight evenly distributed, and should wear little clothing. The patient should be relaxed, and the measurements should be taken at the end of a normal expiration. During screening, baseline, the treatment period, and at follow-up, waist circumference will be measured twice on each scheduled occasion. The average of the two measurements will be recorded in the source document.

patients with T2DM [2] = experiment: Example 1 study: gastric emptying (acetaminophen PK); format: in vivo, human
[3] = Cohort 1 (1.5-4.5 mg QW), D78-80, baseline 59.0
[4] = Cohort 1, escalated to 4.5 mg, Day 78
[5] = Cohort 2 (2-10 mg QW), D106-108, baseline 60.1
[6] = Cohort 2, Day 134 (after end of dosing)
[7] = Cohort 2, Day 162 (after end of dosing)
[8] = Cohort 2, escalated to 4.0 mg, Day 43
[9] = Cohort 2, escalated to 6.0 mg, Day 64
[10] = Cohort 2, escalated to 8.0 mg, Day 85
[11] = Cohort 2, escalated to 10 mg, Day 109

CC(C)C[C@H](NC(=O)[C@H](CC(C)C)NC(=O)[C@H](Cc1c[nH]c2ccccc12)NC(=O)[C@H](CCC(=O)O)NC(=O)[C@@H](NC(=O)[C@H](Cc1ccccc1)NC(=O)[C@H](CCC(=O)O)NC(=O)[C@H](CCCCNC(=O)COCCOCCNC(=O)COCCOCCNC(=O)CC[C@H](NC(=O)CCCCCCCCCCCCCCCCCCC(=O)O)C(=O)O)NC(=O)[C@H](C)NC(=O)[C@H](CCCCN)NC(=O)[C@H](CCCCN)NC(=O)[C@H](CCC(=O)O)NC(=O)[C@H](CC(=O)O)NC(=O)[C@H](CC(C)C)NC(=O)[C@H](Cc1ccc(O)cc1)NC(=O)[C@H](CCCCN)NC(=O)[C@H](CO)NC(=O)[C@H](Cc1ccc(O)cc1)NC(=O)[C@H](CC(=O)O)NC(=O)[C@H](CO)NC(=O)[C@@H](NC(=O)[C@H](Cc1ccccc1)NC(=O)[C@@H](NC(=O)CNC(=O)[C@H](CCC(N)=O)NC(=O)C(C)(C)NC(=O)[C@@H](N)Cc1c[nH]cn1)[C@@H](C)O)[C@@H](C)O)C(C)C)C(=O)N[C@@H](CCC(=O)O)C(=O)NCC(=O)NCC(=O)N1CCC[C@H]1C(=O)N[C@@H](CO)C(=O)N[C@@H](CO)C(=O)NCC(N)=O [Compound 1]
Lean body Mass (patients with T2DM [1]; [3]): 59.4 kg | Lean body mass (patients with T2DM [1]; [3]): 59.4 kg | % Lean body mass (patients with T2DM [1]; Cohort 1 (1.5-4.5 mg QW), D78-80, baseline 60.9%): 64.3% | Waist circumference (patients with T2DM [1]; Cohort 1 (1.5-4.5 mg QW), D78-80, baseline 110.4): 105.7 cm | mean change from baseline in body weight (patients with T2DM [1]; Cohort 1 (1.5-4.5 mg QW), Day 78): −2.88 kg at Day 78 | body weight, mean percent change from baseline (patients with T2DM [1]; [4]): −3.03% | waist circumference, approximate reduction from baseline (patients with T2DM [1]; [4]): ~3% | mean body weight (patients with T2DM [1]; Cohort 1, escalated to 4.5 mg, Day 78, baseline 97.19): 94.0 kg | mean waist circumference (patients with T2DM [1]; Cohort 1, escalated to 4.5 mg, Day 78, baseline 108.66): 105.66 cm | Lean body Mass (patients with T2DM [1]; [5]): 56.4 kg | Lean body mass (patients with T2DM [1]; [5]): 56.4 kg | % Lean body mass (patients with T2DM [1]; Cohort 2 (2-10 mg QW), D106-108, baseline 63.0%): 67.8% | Waist circumference (patients with T2DM [1]; Cohort 2 (2-10 mg QW), D106-108, baseline 108.6): 96.7 cm | body weight decrease from baseline compared to placebo (patients with T2DM [1]; Cohort 2 (2-10 mg QW), Day 50 through Day 162): statistically significant decreases | mean change from baseline in body weight (patients with T2DM [1]; Cohort 2 (2-10 mg QW), Day 109): −10.73 kg at Day 109. | mean body weight (patients with T2DM [1]; Cohort 2, Day 134 (after end of 16 weeks dosing), baseline 94.9): 84.05 kg | body weight, mean percent change from baseline (patients with T2DM [1]; [6]): −11.14% | waist circumference, approximate reduction from baseline (patients with T2DM [1]; [6]): ~9% | mean waist circumference (patients with T2DM [1]; Cohort 2, Day 134 (after end of dosing), baseline 106.93): 97.59 cm | body weight, mean percent change from baseline (patients with T2DM [1]; [7]): −6.56% | waist circumference, approximate reduction from baseline (patients with T2DM [1]; [7]): ~4% | mean body weight (patients with T2DM [1]; Cohort 2, Day 162 (after end of dosing), baseline 94.9): 88.96 kg | mean waist circumference (patients with T2DM [1]; Cohort 2, Day 162 (after end of dosing), baseline 106.93): 102.79 cm | body weight, mean percent change from baseline (patients with T2DM [1]; [8]): −4.04% | waist circumference, approximate reduction from baseline (patients with T2DM [1]; [8]): ~3% | mean body weight (patients with T2DM [1]; Cohort 2, escalated to 4.0 mg, Day 43, baseline 94.9): 90.38 kg | mean waist circumference (patients with T2DM [1]; Cohort 2, escalated to 4.0 mg, Day 43, baseline 106.93): 103.38 cm | body weight, mean percent change from baseline (patients with T2DM [1]; [9]): −7.07% | waist circumference, approximate reduction from baseline (patients with T2DM [1]; [9]): ~5% | mean body weight (patients with T2DM [1]; Cohort 2, escalated to 6.0 mg, Day 64, baseline 94.9): 87.69 kg | mean waist circumference (patients with T2DM [1]; Cohort 2, escalated to 6.0 mg, Day 64, baseline 106.93): 101.31 cm | body weight, mean percent change from baseline (patients with T2DM [1]; [10]): −9.05% | waist circumference, approximate reduction from baseline (patients with T2DM [1]; [10]): ~8% | mean body weight (patients with T2DM [1]; Cohort 2, escalated to 8.0 mg, Day 85, baseline 94.9): 85.88 kg | mean waist circumference (patients with T2DM [1]; Cohort 2, escalated to 8.0 mg, Day 85, baseline 106.93): 98.58 cm | body weight, mean percent change from baseline (patients with T2DM [1]; [11]): −12.71% | waist circumference, approximate reduction from baseline (patients with T2DM [1]; [11]): ~10% | mean body weight (patients with T2DM [1]; Cohort 2, escalated to 10 mg, Day 109, baseline 94.9): 82.55 kg | mean waist circumference (patients with T2DM [1]; Cohort 2, escalated to 10 mg, Day 109, baseline 106.93): 96.56 cm | body weight reduction (patients with T2DM [1]; dose 10 mg or greater): greater than 12% | body weight reduction (patients with T2DM [1]; dose greater than 6 mg): greater than 9% | reduction in waist circumference (patients with T2DM [1]; dose greater than 6.0 mg): greater than 5% | acetaminophen Cmax, Change From Baseline, Mean (patients with T2DM [2]; Cohort 1, Day 107): 1487.25 | acetaminophen tmax (patients with T2DM [2]; Cohort 1, Day 107): 1.456 h | acetaminophen tmax (patients with T2DM [2]; Cohort 2, Day 79): 3.302 h | acetaminophen tmax, Change From Baseline, Mean (patients with T2DM [2]; Cohort 2, Day 79): 0.333 h
